How the values were obtained:
Assay type in all cases: functional, Homo sapiens
Design in all cases: dose or concentration left out as unconfirmed
[1] = tested on: Colon cancer organoid; test: Optimized Dual-Glo assay to identify co-culture induced drug vulnerabilities using donated chemical probes and chemogenomics kinase set in O14 CRC organoid and F14 CAF mono and co-culture. […] Cell viability is reported both mono and co-culture models.
[2] = tested on: Colon cancer organoid; test: Optimized Dual-Glo assay to identify co-culture induced drug vulnerabilities using donated chemical probes and chemogenomics kinase set in O20 CRC organoid and F20 CAF mono and co-culture. […] Cell viability is reported both mono and co-culture models.
[3] = tested on: Colon cancer organoid; test: Optimized Dual-Glo assay to identify co-culture induced drug vulnerabilities using donated chemical probes and chemogenomics kinase set in O06 CRC organoid and F06 CAF mono and co-culture. […] Cell viability is reported both mono and co-culture models.
[4] = Culture type Co-Culture, Transduced with Lucferase2-P2A-EGFP lentivirus
[5] = Culture type Co-Culture, Transduced with Renilla-dsRed lentivirus
[6] = Culture type Mono-Culture, Transduced with Lucferase2-P2A-EGFP lentivirus
[7] = Culture type Mono-Culture, Transduced with Renilla-dsRed lentivirus

| Structure (SMILES) | Cell Viability [1, 4] [%] | Cell Viability [1, 5] [%] | Cell Viability [1, 6] [%] | Cell Viability [1, 7] [%] | Cell Viability [2, 4] [%] | Cell Viability [2, 5] [%] | Cell Viability [2, 6] [%] | Cell Viability [2, 7] [%] | Cell Viability [3, 4] [%] | Cell Viability [3, 5] [%] | Cell Viability [3, 6] [%] | Cell Viability [3, 7] [%] |
| --- | --- | --- | --- | --- | --- | --- | --- | --- | --- | --- | --- | --- |
| Cc1ccc(-c2ccc3c(ccc4sc5c(c43)NC[C@@H](C)NC5=O)n2)cn1 | 126.339 | 65.0441 | 182.208 | 70.7861 | 152.499 | 70.7863 | 154.638 | 67.5844 | 100.355 | 85.371 | 114.604 | 88.0896 |
| CCOc1cc(N2CCC(O)CC2)ccc1Nc1ncc2c(n1)N(C)c1ccccc1C(=O)N2C | 76.0009 | 186.577 | 84.1713 | 122.992 | 81.7751 | 117.331 | 65.2469 | 115.42 | 85.6087 | 128.987 | 73.5863 | 165.88 |
| Nc1ccc(C(=O)Nc2cccc(-c3nc(N4CCOCC4)c4oc5ncccc5c4n3)c2)cn1 | 67.7704 | 105.191 | 42.3601 | 61.5192 | 142.389 | 75.1771 | 60.1963 | 81.7819 | 78.745 | 81.5262 | 28.4733 | 93.3288 |
| O=C1[C@H](Cc2ccc(O)cc2)N2C(=O)CCN(C(=O)NCc3ccccc3)[C@H]2CN1Cc1cccc2ccccc12 | 20.45 | 145.967 | 17.2238 | 77.2237 | 89.6614 | 144.616 | 131.376 | 33.7268 | 79.2211 | 124.216 | 100.059 | 61.7438 |
| CCOC(=O)Nc1cc(-c2ccc(C)c(NS(C)(=O)=O)c2)nn2c(C)nnc12 | 71.1092 | 228.167 | 66.8371 | 176.186 | 38.58 | 177.965 | 39.5437 | 109.867 | 112.605 | 266.102 | 81.8905 | 215.442 |
| COc1ccccc1-c1cc(Nc2cccc(CS(N)(=O)=O)c2)ncn1 | 107.839 | 92.9577 | 111.603 | 77.4194 | 104.861 | 97.4583 | 84.7968 | 76.3761 | 105.6 | 95.8866 | 67.576 | 79.9168 |
| COc1ccccc1C(=O)Nc1cc2c(cc1N1CCCC1)n(C)c(=O)n2C | 94.3985 | 117.237 | 96.8906 | 95.8256 | 113.69 | 143.545 | 104.265 | 110.449 | – | – | – | – |
| CC1=C(C(=O)Nc2cc3cn[nH]c3cc2F)C(c2ccc(C(F)(F)F)cc2)CC(=O)N1 (stereo not drawn) | 79.4624 | 111.728 | 79.1311 | 103.404 | 133.522 | 94.2958 | 98.8555 | 95.2955 | 110.512 | 74.1449 | 112.137 | 107.646 |
| COc1cc(-c2cn(C)c(=O)c3cnccc23)c(OC)cc1CN(C)C | 86.2085 | 136.409 | 67.8836 | 114.194 | 61.2069 | 139.676 | 83.2777 | 82.5544 | 79.252 | 108.934 | 73.0791 | 96.9165 |
| CN(C)C(=O)/C(C#N)=C/c1ccc(-c2nc3cnc4[nH]ccc4c3n2C2CCCCC2)o1 | 115.273 | 92.8472 | 120.035 | 91.5278 | 75.2682 | 130.215 | 113.424 | 104.709 | 95.2227 | 96.9669 | 138.382 | 96.6584 |
| Cl.Cl.NC1(c2ccc(-c3nc4ccn5c(=O)[nH]nc5c4cc3-c3ccccc3)cc2)CCC1 | 42.2425 | 103.472 | 90.3868 | 88.3443 | 44.0229 | 145.22 | 34.39 | 114.515 | 52.26 | 91.614 | 79.8603 | 69.8373 |
| Cn1cc(-c2ccc3occ(-c4ccccc4-c4ccccc4)c3n2)cn1 | 101.217 | 93.8283 | 119.561 | 96.0811 | 88.7548 | 89.3741 | 123.78 | 115.172 | 137.24 | 150.558 | 120.153 | 121.662 |
| Cn1cc(-c2ccc3occ(-c4cccc(-c5ccncc5)c4)c3n2)cn1 | 113.323 | 67.5057 | 72.9931 | 81.4959 | 65.7439 | 132.411 | 69.6903 | 72.543 | 91.2802 | 94.5664 | 138.621 | 110.377 |
| CN(C)C(=O)/C(C#N)=C/c1ccc(-c2nc3cnc4c(ccn4C)c3n2C2CCCCC2)o1 | 95.1732 | 102.012 | 142.854 | 112.554 | 49.7098 | 127.191 | 136.658 | 125.979 | 100.774 | 167.563 | 117.157 | 133.695 |
| CS(=O)(=O)N1CCN(Cc2cc3nc(-c4cccc5[nH]ncc45)nc(N4CCOCC4)c3s2)CC1 [PICTILISIB] | – | – | – | – | – | – | – | – | 43.124 | 60.0718 | 35.1251 | 58.2983 |

From ChEMBL document CHEMBL5674860, “Optimized Dual-Glo Assay to identify co-culture-induced drug vulnerabilities in 3D CRC models” (2024)
